Consider four compounds from ChEMBL document CHEMBL1201862, “PubChem BioAssay data set” (2004).

Some test systems named below: COLO 205; Malme-3M; SW-620; MOLT-4; SN12C; MDA-MB-231; MDA-MB-435; A549; MCF7; SK-OV-3; TK-10; T47D; DU-145; SK-MEL-28; HOP-92; UACC-62; A498; U-251; SF-295; UO-31.
Holding throughout (experiment): growth of human tumour cells (NCI), 48 h

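Method: 48-hour compound exposure of cells in 96-well plates, five concentrations, linear interpolation of endpoints. Abbreviation: GI50, concentration required for 50% inhibition of growth.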 Calls of active or inactive are those of the source. No stated cut-off is given here; in the data, active = GI50 up to about 1.1 µM and inactive = higher.

As for `CCOC(=O)c1cnc2oc3ccc(O)cc3c2c1-c1ccccc1`, the GI50 is 28.5 µM (inactive) in the test on COLO 205; 23 µM (inactive) with Malme-3M; > 100 µM (inactive) in the test on SW-620; 7.4 µM (inactive) in the test on MOLT-4; 37.9 µM (inactive) in the test on SN12C; 16.8 µM (inactive) in the test with MDA-MB-231. The GI50 in the test with MDA-MB-435 is 19.2 µM (inactive); with A549, 32.4 µM (inactive); in the test with MCF7, 44.7 µM (inactive); in the test on SK-OV-3 it was 15.8 µM (inactive); in the test with TK-10 it was > 100 µM (inactive); with T47D, > 100 µM (inactive). For the same compound, the GI50 is > 100 µM (inactive) in the test on DU-145; 36.6 µM (inactive) in the test with SK-MEL-28; 16.3 µM (inactive) in the test on HOP-92; 12.8 µM (inactive) in the test on UACC-62; > 100 µM (inactive) in the test on A498; 44.8 µM (inactive) with U-251. Also, in the test on SF-295, the GI50 was 37.2 µM (inactive).
Take `CC(=O)c1c(O)cc(O)c(-c2c(C)cc(O)c3c2C(=O)c2cccc(O)c2C3=O)c1O`: the GI50 was 14.5 µM (inactive) in the test with UO-31; 11.9 µM (inactive) with Malme-3M; 18.7 µM (inactive) with SW-620; 10.8 µM (inactive) in the test with MOLT-4; 19.1 µM (inactive) in the test on SN12C; 25.1 µM (inactive) in the test with MDA-MB-231. For the same compound, the GI50 is 16.7 µM (inactive) with MDA-MB-435; 14.6 µM (inactive) with A549; 14.8 µM (inactive) with MCF7; 13.1 µM (inactive) in the test on SK-OV-3; 15.8 µM (inactive) with TK-10; 4.95 µM (inactive) in the test on T47D. Further, the GI50 was 16.3 µM (inactive) in the test with DU-145; 20.7 µM (inactive) in the test on SK-MEL-28; 11.8 µM (inactive) with HOP-92; 14.5 µM (inactive) in the test on UACC-62; 15.6 µM (inactive) in the test with A498; 14 µM (inactive) in the test with U-251. The GI50 with SF-295 is 13.1 µM (inactive).
`O=C(C[C@@H]1NCCC[C@H]1O)Cn1cnc2cc(Br)c(Cl)cc2c1=O`: the GI50 in the test with UO-31 was 0.0376 µM (active); in the test on COLO 205, 0.0165 µM (active); in the test on Malme-3M, 0.0318 µM (active); in the test with SW-620, 0.0259 µM (active); in the test on MOLT-4, 0.0266 µM (active); in the test on SN12C, < 0.01 µM (active). Moreover, the GI50 was 0.0284 µM (active) with MDA-MB-231; 0.012 µM (active) in the test with MDA-MB-435; 0.0128 µM (active) with A549; < 0.01 µM (active) in the test on MCF7; < 0.0118 µM (active) in the test on SK-OV-3; 0.0491 µM (active) with TK-10. Further, the GI50 with T47D is 0.0246 µM (active); with DU-145, 0.025 µM (active); with SK-MEL-28, 0.0274 µM (active); with HOP-92, 0.0304 µM (active); with A498, 0.0327 µM (active); in the test on U-251, 0.0252 µM (active). Besides, the GI50 with SF-295 was 0.024 µM (active).
`CCOC(=O)/C(=C\c1ccc(CO)o1)P(=O)(OCC)OCC`: the GI50 in the test with COLO 205 was 23 µM (inactive); in the test on Malme-3M it was 20.8 µM (inactive); in the test on SW-620 it was 27.4 µM (inactive); in the test with MOLT-4, 56.8 µM (inactive); in the test with SN12C, 30.5 µM (inactive); with MDA-MB-231, 31.7 µM (inactive). The GI50 in the test with MDA-MB-435 is 29 µM (inactive); with A549, > 100 µM (inactive); with MCF7 it was 43.9 µM (inactive); with SK-OV-3 it was 68.5 µM (inactive); in the test on TK-10 it was 49.5 µM (inactive); in the test with T47D, 91.2 µM (inactive). Further, the GI50 with DU-145 is 41.9 µM (inactive); in the test with SK-MEL-28, 30.7 µM (inactive); in the test on HOP-92 it was 23.7 µM (inactive); with UACC-62, 38.7 µM (inactive); in the test on A498 it was 55.3 µM (inactive); in the test on U-251, 42.4 µM (inactive). The GI50 with SF-295 is > 100 µM (inactive).
